In patent US7553867B2, “Furan or thiophene derivative and medicinal use thereof” (Takeda Pharmaceutical Company Limited, priority 2002, dated 2009):

melting point | SMILES
187 to 188 °C | Cc1oc(-c2ccc(C(F)(F)F)cc2)cc1COc1ccc2sc(CCC(=O)O)cc2c1 [Example 6(103), 3-[5-({2-Methyl-5-[4-(trifluoromethyl)phenyl]-3-furyl}methoxy)-1-benzothien-2-yl]propionic acid]
82 to 83 °C | Cc1oc(-c2ccc(C(F)(F)F)cc2)cc1COc1cccc(CSC(C)C(=O)O)c1 (centres unmarked) [Example 9(1), 2-{[3-({2-Methyl-5-[4-(trifluoromethyl)phenyl]-3-furyl}methoxy)-benzyl]thio}propionic acid]
96 to 97 °C | Cc1cc(OCc2cc(-c3ccc(C(F)(F)F)cc3)oc2C)ccc1CC(C)C(=O)O (centres unmarked) [Example 6(76), 2-Methyl-3-[2-methyl-4-({2-methyl-5-[4-(trifluoromethyl)phenyl]-3-furyl}methoxy)phenyl]propionic acid]
89 to 90 °C | Cc1oc(-c2ccc(F)cc2)cc1COc1cccc(C(C)SC(C)(C)C(=O)O)c1 (centres unmarked) [Example 6(65), 2-{[1-(3-{[5-(4-Fluorophenyl)-2-methyl-3-furyl]methoxy}phenyl)ethyl]thio}-2-methylpropionic acid]
113 to 114 °C | Cc1oc(-c2ccc(C(F)(F)F)cc2)cc1CCCOc1ccc(CC(=O)O)cc1 [Example 6(8), [4-(3-{2-Methyl-5-[4-(trifluoromethyl)phenyl]-3-furyl}propoxy)phenyl]acetic acid]
127 to 128 °C | Cc1oc(-c2ccc(C(F)(F)F)cc2)cc1CCCOc1ccc(SC(C)(C)C(=O)O)cc1 [Example 6(122), 2-Methyl-2-{[4-(3-{2-methyl-5-[4-(trifluoromethyl)phenyl]-3-furyl}propoxy)phenyl]thio}propionic acid]
112 to 113 °C | CCc1oc(-c2ccc(C(F)(F)F)cc2)cc1CCCOc1ccc(CC(=O)O)cc1Cl [Example 6(93), [3-Chloro-4-(3-{2-ethyl-5-[4-(trifluoromethyl)phenyl]-3-furyl}propoxy)phenyl]acetic acid]
143 to 145 °C | Cc1oc(-c2ccc(C(F)(F)F)cc2)cc1CCc1ncc(CC(=O)O)s1 [Example 13(1), [2-(2-{2-Methyl-5-[4-(trifluoromethyl)phenyl]-3-furyl}ethyl)-1,3-thiazol-5-yl]acetic acid]
134 to 135 °C | Cc1oc(-c2ccc(C(F)(F)F)cc2)cc1COc1ccc(OC(C)(C)C(=O)O)cc1 [Example 6(5), 2-Methyl-2-[4-({2-methyl-5-[4-(trifluoromethyl)phenyl]-3-furyl}methoxy)phenoxy]propionic acid]
96 to 97 °C | COc1ccc(-c2cc(COc3cccc(CSC(C)(C)C(=O)O)c3)c(C)o2)cc1 [Example 6(110), 2-[(3-{[5-(4-Methoxyphenyl)-2-methyl-3-furyl]methoxy}benzyl)thio]-2-methylpropionic acid]
115 to 116 °C | Cc1oc(-c2ccc(C(F)(F)F)cc2)cc1CCOc1ccc(CC(=O)O)cc1 [Example 6(13), [4-(2-{2-Methyl-5-[4-(trifluoromethyl)phenyl]-3-furyl}ethoxy)phenyl]acetic acid]
111 to 112 °C | COc1cccc(-c2cc(COc3ccc(OC(C)(C)C(=O)O)cc3)c(C)o2)c1 [Example 6(60), 2-(4-{[5-(3-Methoxyphenyl)-2-methyl-3-furyl]methoxy}phenoxy)-2-methylpropionic acid]
140 to 142 °C | Cc1oc(-c2ccc(C(F)(F)F)cc2)cc1COc1ccc2oc(CC(=O)O)cc2c1 [Example 6(90), [5-({2-Methyl-5-[4-(trifluoromethyl)phenyl]-3-furyl}methoxy)-1-benzofuran-2-yl]acetic acid]
138 to 139 °C | CCc1oc(-c2ccc(C(F)(F)F)cc2)cc1CCCOc1ccc(OC)c(CC(=O)O)c1 [Example 6(39), [5-(3-{2-Ethyl-5-[4-(trifluoromethyl)phenyl]-3-furyl}propoxy)-2-methoxyphenyl]acetic acid]
